Assays:
[1] = test system: RDL A^301S mutation; set-up: method as in PMID 2124226; settings: cited from earlier work
[2] = molecular target: RDLbdI/V (Drosophila melanogaster, UniProt P25123, I283V); assay: cell-based; settings: for concentration at which responses failed to saturate: highest concentration usable, TACA, muscimol, β-alanine insoluble at higher concentrations
[3] = test system: RDLbdI/VA^301S; assay: cell-based; set-up: species or system Drosophila melanogaster; settings: compared to wild-type / RDLbdI/V
[4] = molecular target: T1, RDLbd (Drosophila melanogaster, UniProt P25123); assay: cell-based
T1 sequence (P25123 45-606): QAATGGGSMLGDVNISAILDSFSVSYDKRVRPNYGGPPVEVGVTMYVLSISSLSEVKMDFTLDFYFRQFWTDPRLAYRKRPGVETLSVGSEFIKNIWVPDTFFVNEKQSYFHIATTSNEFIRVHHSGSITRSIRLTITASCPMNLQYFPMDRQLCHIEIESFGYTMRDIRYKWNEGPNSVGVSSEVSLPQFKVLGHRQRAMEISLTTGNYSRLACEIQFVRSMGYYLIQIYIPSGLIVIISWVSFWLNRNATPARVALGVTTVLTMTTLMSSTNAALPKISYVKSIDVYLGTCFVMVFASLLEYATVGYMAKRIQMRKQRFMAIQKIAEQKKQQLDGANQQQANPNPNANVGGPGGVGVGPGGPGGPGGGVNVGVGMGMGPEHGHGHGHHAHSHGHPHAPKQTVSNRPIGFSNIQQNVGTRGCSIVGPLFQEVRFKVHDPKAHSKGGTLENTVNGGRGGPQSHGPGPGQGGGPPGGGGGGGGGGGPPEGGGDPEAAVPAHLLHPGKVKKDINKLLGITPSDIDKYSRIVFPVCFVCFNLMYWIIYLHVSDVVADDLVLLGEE

[5] = test system: Drosophila carrying the P299S mutation in GluCl; set-up: method as in PMID 11095718; settings: cited from earlier work
[6] = test system: Drosophila carrying the RDLA^301S mutation; set-up: method as in PMID 11095718; settings: cited from earlier work
[7] = test system: human glycine α1 receptor A288G; set-up: method as in PMID 20308070; settings: A288G mutation; cited from earlier work

RDLbdI/V, sequence (P25123 45-606 I283V): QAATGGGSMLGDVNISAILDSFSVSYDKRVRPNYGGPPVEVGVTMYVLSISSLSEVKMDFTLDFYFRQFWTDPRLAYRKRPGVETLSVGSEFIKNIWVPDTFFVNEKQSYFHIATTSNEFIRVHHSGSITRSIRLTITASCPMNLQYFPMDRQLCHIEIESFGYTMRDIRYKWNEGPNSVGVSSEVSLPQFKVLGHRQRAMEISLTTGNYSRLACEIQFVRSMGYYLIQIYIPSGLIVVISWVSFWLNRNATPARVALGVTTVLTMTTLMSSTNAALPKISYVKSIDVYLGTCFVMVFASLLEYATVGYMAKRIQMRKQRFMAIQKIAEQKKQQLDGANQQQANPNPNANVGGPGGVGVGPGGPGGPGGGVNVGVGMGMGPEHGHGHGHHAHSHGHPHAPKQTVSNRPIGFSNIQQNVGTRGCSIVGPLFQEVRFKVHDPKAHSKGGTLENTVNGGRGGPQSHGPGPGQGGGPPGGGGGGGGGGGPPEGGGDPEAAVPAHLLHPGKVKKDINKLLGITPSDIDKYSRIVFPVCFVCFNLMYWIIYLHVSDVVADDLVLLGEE

Row | SMILES | concentration at which responses failed to saturate [2] | resistance caused by the A^301S mutation [3] | IC50 [4] | other results
1 | ClC1=C(Cl)[C@]2(Cl)[C@@H]3[C@@H]4C[C@@H]([C@H]5O[C@@H]45)[C@@H]3[C@@]1(Cl)C2(Cl)Cl [dieldrin] |  |  |  | resistance [1]: > 4000 fold
2 | O=C(O)C1=CCNCC1 [isoguvacine] | 3 mM |  |  | 
3 | N#Cc1nn(-c2c(Cl)cc(C(F)(F)F)cc2Cl)c(N)c1[S+]([O-])C(F)(F)F (stereo not drawn) [fipronil] |  | 3 fold | 331 nM | current induced when applied alone ([2]; 1 nM−100 µM, no GABA, receptor variant not stated, data not shown): no discernible current
4 | CC[C@H](C)[C@H]1O[C@]2(CC[C@@H]1C)C[C@@H]1C[C@@H](C/C=C(\C)[C@@H](O[C@H]3C[C@H](OC)[C@@H](O[C@H]4C[C@H](OC)[C@@H](O)[C@H](C)O4)[C@H](C)O3)[C@@H](C)/C=C/C=C3\CO[C@@H]4[C@H](O)C(C)=C[C@@H](C(=O)O1)[C@]34O)O2 [IVM, ivermectin] |  | 2 fold | 525 nM | sensitivity change [5]: ten-fold less sensitive; resistance compared to the wild-type [6]: 3.3 fold; increase in sensitivity [7]: ~100 fold
5 | NCCC(=O)O [β-alanine] | 10 mM |  |  | 
6 | NC/C=C/C(=O)O [TACA, trans-4-aminocrotonic acid] | 6 mM |  |  | 
7 | NCc1cc(=O)[nH]o1 [muscimol] | 3 mM |  |  | 
8 | N#Cc1nn(-c2c(Cl)cc(C(F)(F)F)cc2Cl)c(NCc2cnccn2)c1SCF [Pyrafluprole, pyrafluprole] |  | 2 fold | 631 nM | 
